# In US20260207563A1, “UREA COMPOUNDS AS ACTIVATORS OF POTASSIUM CHANNELS KV7.2/7.3 USEFUL IN THE TREATMENT OF CNS AND PNS DISORDERS” (ANGELINI PHARMA S.P.A., priority 2022, published 2026):
# Columns and labels:
# Type in all cases: cell-based
# [1] = biological target: T1, heteromeric KV7.3/KV7.5 channel (KCNQ3, KCNQ5) (Homo sapiens, UniProt O43525+Q9NR82); assay: Automated patch-clamp counter-screening against KV7.3/KV7.5 channel; conditions: HEK293 cells expressing Kv7.3/KV7.5; class by maximal shift in the Vhalf at 30 μM
# T1 construct: host or cells: HEK293
# How it was run: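 Potency came from a 4-parameter logistic fit of mean voltage-of-half-activation shifts, yielding EC50 and maximal shift; selectivity was judged on the shift at 30 μM. Compounds were applied at ten 3-fold dilutions from 30 μM in quadruplicate to HEK293 cells stably carrying Kv7.3 with tet-inducible Kv7.5.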
# [2] = biological target: T2, heteromeric KV7.2/KV7.3 channels (KCNQ2, KCNQ3) (Homo sapiens, UniProt O43525+O43526); assay: Automated patch-clamp (Sophion Qube 384) potency assay against KV7.2/KV7.3 channels; conditions: CHO-K1/Kv7.2/Kv7.3 cells; for EC50: EC50 from concentration-response of shift in Vhalf, 10 concentrations up to 30 μM, read-out: Kv7.2/7.3 EC50; for Kv7.2/7.3 ΔV1/2: maximal shift in the Vhalf from the top of the curve
# T2 construct: expressed in transfected cells; host or cells: CHO-K1
# How it was run: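 Activator potency: EC50 from 4-parameter logistic fit of mean Vhalf shift across ten 1-in-3 dilutions starting at 30 μM (n=4), with DMSO (typically 0.3%) control. Currents recorded by leak-subtracted whole-cell clamp of stable CHO-K1 KV7.2/KV7.3 cells, held at −80 mV, stepped −100 to +20 mV then 0 mV tails.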
# [3] = biological target: T3, homomeric KV7.4 channel (KCNQ4) (Homo sapiens, UniProt P56696); assay: Automated patch-clamp (Qube) counter-screening assay against KV7.4 channel; conditions: CHO-K1 cells expressing KV7.4; class by maximal shift in the Vhalf at 30 μM
# T3 construct: host or cells: CHO-K1
# How it was run: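 EC50 and maximal shift in half-activation voltage come from 4-parameter logistic fits of mean Vhalf shifts. The series had ten 1-in-3 concentrations, highest 30 μM, each tested in quadruplicate. Recordings used automated Qube patch clamp on a stable CHO-K1 line expressing KCNQ4, and selectivity was judged from the 30 μM Vhalf shift.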
Structure (SMILES),Kv7.3/7.5 selectivity criteria [1],EC50 [2] [nM],Kv7.2/7.3 ΔV1/2 [2] [mV],Kv7.4 selectivity criteria [3]
CC(NC(=O)NCCC1(C(F)(F)F)CC1)c1ccnc(OCC(F)(F)F)n1 (stereo not shown) [Compound 104],A (Selective compounds showed Kv7.4 and/or Kv7.3/7.5 ΔV1/2 equal to or lower than 15 mV (letter A in table 3)),3090,21.96,A (Selective compounds showed Kv7.4 and/or Kv7.3/7.5 ΔV1/2 equal to or lower than 15 mV (letter A in table 3))
C[C@H](NC(=O)NC[C@H](O)C(C)(C)C)c1ccnc(OCC(F)(F)C(F)(F)F)c1 [Compound 105],A (Selective compounds showed Kv7.4 and/or Kv7.3/7.5 ΔV1/2 equal to or lower than 15 mV (letter A in table 3)),1500,35.29,B (Non-selective compounds showed Kv7.4 and/or Kv7.3/7.5 ΔV1/2 higher than 15 mV (letter B in table 3))
O=C(NCCC1(C(F)(F)F)CC1)N1CCC[C@H]1c1ccnc(OCC(F)(F)F)c1 [Compound 106],A (Selective compounds showed Kv7.4 and/or Kv7.3/7.5 ΔV1/2 equal to or lower than 15 mV (letter A in table 3)),2840,28.47,A (Selective compounds showed Kv7.4 and/or Kv7.3/7.5 ΔV1/2 equal to or lower than 15 mV (letter A in table 3))
O=C(NCc1ccnc(OCC(F)(F)F)n1)NCC1CCCCC1 [Compound 107],A (Selective compounds showed Kv7.4 and/or Kv7.3/7.5 ΔV1/2 equal to or lower than 15 mV (letter A in table 3)),3060,20.76,A (Selective compounds showed Kv7.4 and/or Kv7.3/7.5 ΔV1/2 equal to or lower than 15 mV (letter A in table 3))
O=C(NCC1CCC(F)(F)CC1)N[C@@H](CO)c1ccnc(OCC(F)(F)F)c1 [Compound 108],A (Selective compounds showed Kv7.4 and/or Kv7.3/7.5 ΔV1/2 equal to or lower than 15 mV (letter A in table 3)),3180,26.46,A (Selective compounds showed Kv7.4 and/or Kv7.3/7.5 ΔV1/2 equal to or lower than 15 mV (letter A in table 3))
O=C(NCCC1(C(F)(F)F)CC1)NCc1ccnc(C(F)F)c1 [Compound 109],A (Selective compounds showed Kv7.4 and/or Kv7.3/7.5 ΔV1/2 equal to or lower than 15 mV (letter A in table 3)),4790,16.81,A (Selective compounds showed Kv7.4 and/or Kv7.3/7.5 ΔV1/2 equal to or lower than 15 mV (letter A in table 3))
C[C@H](NC(=O)N[C@@H]1CCc2ccc(F)cc21)c1ccnc(OCC(F)(F)F)n1 [Compound 110],B (Non-selective compounds showed Kv7.4 and/or Kv7.3/7.5 ΔV1/2 higher than 15 mV (letter B in table 3)),1920,28.73,A (Selective compounds showed Kv7.4 and/or Kv7.3/7.5 ΔV1/2 equal to or lower than 15 mV (letter A in table 3))
O=C(NCc1ccnc(OCC(F)F)c1)N[C@@H]1CCc2ccc(F)cc21 [Compound 111],B (Non-selective compounds showed Kv7.4 and/or Kv7.3/7.5 ΔV1/2 higher than 15 mV (letter B in table 3)),2440,35.96,A (Selective compounds showed Kv7.4 and/or Kv7.3/7.5 ΔV1/2 equal to or lower than 15 mV (letter A in table 3))
O=C(NCCC1(C(F)(F)F)CC1)N[C@@H](CO)c1ccnc(OCC(F)(F)F)c1 [Compound 112],A (Selective compounds showed Kv7.4 and/or Kv7.3/7.5 ΔV1/2 equal to or lower than 15 mV (letter A in table 3)),653,26.53,A (Selective compounds showed Kv7.4 and/or Kv7.3/7.5 ΔV1/2 equal to or lower than 15 mV (letter A in table 3))
O=C(NCc1ccnc(C(O)C(F)(F)F)c1)N[C@@H]1CCc2ccc(F)cc21 (stereo partly shown) [Compound 113],B (Non-selective compounds showed Kv7.4 and/or Kv7.3/7.5 ΔV1/2 higher than 15 mV (letter B in table 3)),7640,27.22,A (Selective compounds showed Kv7.4 and/or Kv7.3/7.5 ΔV1/2 equal to or lower than 15 mV (letter A in table 3))
CC1(NC(=O)NCc2ccnc(OCC(F)(F)F)c2)Cc2ccccc2C1 [Compound 114],B (Non-selective compounds showed Kv7.4 and/or Kv7.3/7.5 ΔV1/2 higher than 15 mV (letter B in table 3)),672,32.56,A (Selective compounds showed Kv7.4 and/or Kv7.3/7.5 ΔV1/2 equal to or lower than 15 mV (letter A in table 3))
O=C(NCc1ccnc(OCC(F)(F)F)c1)N[C@@H]1CCc2ccccc2C1 [Compound 115],A (Selective compounds showed Kv7.4 and/or Kv7.3/7.5 ΔV1/2 equal to or lower than 15 mV (letter A in table 3)),479,21.89,A (Selective compounds showed Kv7.4 and/or Kv7.3/7.5 ΔV1/2 equal to or lower than 15 mV (letter A in table 3))
Cc1cccc2c1C(NC(=O)NCc1ccnc(OCC(F)(F)F)c1)CC2 (stereo not shown) [Compound 116],B (Non-selective compounds showed Kv7.4 and/or Kv7.3/7.5 ΔV1/2 higher than 15 mV (letter B in table 3)),1590,31.15,A (Selective compounds showed Kv7.4 and/or Kv7.3/7.5 ΔV1/2 equal to or lower than 15 mV (letter A in table 3))
O=C(NCc1ccnc(OCC(F)(F)F)c1)NC1CCc2ccc(C(F)(F)F)cc21 (stereo not shown) [Compound 117],A (Selective compounds showed Kv7.4 and/or Kv7.3/7.5 ΔV1/2 equal to or lower than 15 mV (letter A in table 3)),1900,20.5,A (Selective compounds showed Kv7.4 and/or Kv7.3/7.5 ΔV1/2 equal to or lower than 15 mV (letter A in table 3))
O=C(NCc1ccnc(OCC(F)(F)F)c1)N[C@@H]1CCc2c(Cl)cccc21 [Compound 118],B (Non-selective compounds showed Kv7.4 and/or Kv7.3/7.5 ΔV1/2 higher than 15 mV (letter B in table 3)),1550,41.97,B (Non-selective compounds showed Kv7.4 and/or Kv7.3/7.5 ΔV1/2 higher than 15 mV (letter B in table 3))
O=C(NCc1ccnc(OCC(F)(F)F)c1)N[C@@H]1CCc2cc(F)c(F)cc21 [Compound 119],B (Non-selective compounds showed Kv7.4 and/or Kv7.3/7.5 ΔV1/2 higher than 15 mV (letter B in table 3)),1080,36.41,A (Selective compounds showed Kv7.4 and/or Kv7.3/7.5 ΔV1/2 equal to or lower than 15 mV (letter A in table 3))
O=C(NCc1ccnc(OCC(F)(F)F)c1)N[C@H]1CCc2cc(F)c(F)cc21 [Compound 120],A (Selective compounds showed Kv7.4 and/or Kv7.3/7.5 ΔV1/2 equal to or lower than 15 mV (letter A in table 3)),276,16.57,B (Non-selective compounds showed Kv7.4 and/or Kv7.3/7.5 ΔV1/2 higher than 15 mV (letter B in table 3))
O=C(NCc1ccnc(OCC(F)(F)F)c1)N[C@@H]1CCc2c(Cl)cccc21 [Compound 121],B (Non-selective compounds showed Kv7.4 and/or Kv7.3/7.5 ΔV1/2 higher than 15 mV (letter B in table 3)),1560,38.54,B (Non-selective compounds showed Kv7.4 and/or Kv7.3/7.5 ΔV1/2 higher than 15 mV (letter B in table 3))
COc1ccc2c(c1)CCC2NC(=O)NCc1ccnc(OCC(F)(F)F)c1 (stereo not shown) [Compound 122],A (Selective compounds showed Kv7.4 and/or Kv7.3/7.5 ΔV1/2 equal to or lower than 15 mV (letter A in table 3)),2710,26.22,A (Selective compounds showed Kv7.4 and/or Kv7.3/7.5 ΔV1/2 equal to or lower than 15 mV (letter A in table 3))
O=C(NCc1ccnc(OCC(F)(F)F)c1)N[C@H]1c2ccccc2C[C@@H]1O [Compound 123],A (Selective compounds showed Kv7.4 and/or Kv7.3/7.5 ΔV1/2 equal to or lower than 15 mV (letter A in table 3)),6670,25.23,A (Selective compounds showed Kv7.4 and/or Kv7.3/7.5 ΔV1/2 equal to or lower than 15 mV (letter A in table 3))
CC(F)(F)c1cc(CNC(=O)N[C@@H]2CCc3ccc(F)cc32)ccn1 [Compound 124],A (Selective compounds showed Kv7.4 and/or Kv7.3/7.5 ΔV1/2 equal to or lower than 15 mV (letter A in table 3)),11700,18.78,A (Selective compounds showed Kv7.4 and/or Kv7.3/7.5 ΔV1/2 equal to or lower than 15 mV (letter A in table 3))
COc1cc2c(cc1F)CCC2NC(=O)NCc1ccnc(OCC(F)(F)F)c1 (stereo not shown) [Compound 125],A (Selective compounds showed Kv7.4 and/or Kv7.3/7.5 ΔV1/2 equal to or lower than 15 mV (letter A in table 3)),683,18.25,A (Selective compounds showed Kv7.4 and/or Kv7.3/7.5 ΔV1/2 equal to or lower than 15 mV (letter A in table 3))
